Results as given in PMC10272112 (Nature Communications, 2023).

Assays:
HDAC8 [1] = biological target: T1, HDAC8 (Homo sapiens, UniProt Q9BY41); assay: HDAC-Glo assay; assay type: biochemical; parameters: purchased BPS Bioscience 50008; conditions: read-out: log EC50 from dose-dependent HDAC inhibition curves (converted)
T1 sequence (Q9BY41 1-377): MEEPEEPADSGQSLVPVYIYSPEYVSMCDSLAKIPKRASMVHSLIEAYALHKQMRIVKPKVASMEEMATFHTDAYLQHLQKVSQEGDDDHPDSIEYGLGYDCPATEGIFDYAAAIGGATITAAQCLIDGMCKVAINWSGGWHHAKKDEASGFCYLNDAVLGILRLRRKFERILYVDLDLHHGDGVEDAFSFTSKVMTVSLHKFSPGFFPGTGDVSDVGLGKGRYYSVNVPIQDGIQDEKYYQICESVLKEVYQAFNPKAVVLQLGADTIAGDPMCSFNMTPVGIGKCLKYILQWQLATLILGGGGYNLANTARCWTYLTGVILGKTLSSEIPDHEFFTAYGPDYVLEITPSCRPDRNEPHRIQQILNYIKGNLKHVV
Procedure: To validate the inhibition of HDACs by LA and LM and elaborate on the structure-activity relationship (SAR) of enantiomers as well as oxidized versus reduced forms of the molecules, we performed enzyme activity assays for recombinant HDAC1,2,3,6,8 as well as FRET-based binding assay for recombinant HDAC10.
The experiments were performed according to ref. [48]. […] Drug dosing was performed with a D300e Digital Dispenser (Tecan). HDACs (7 ng/mL for HDAC1, 25 ng/mL for HDAC2, 200 ng/mL for HDAC3/Ncor2 complex, 100 ng/mL for HDAC6, 200 ng/mL for HDAC8) and inhibitors were incubated together at room temperature (RT) for 30 min. After the addition of the HDAC-Glo™ I/II reagent, plates were shaken (800 rpm orbital shaker, 30 s), centrifuged (300 g, 1 min), and incubated at RT for 30 min. Luminescence was detected with a CLARIOstar (BMG Labtech) plate reader.

HDAC8 [2] = biological target: T1, HDAC8; assay: Chemoproteomic competition pulldown assay; assay type: binding; parameters: endogenous in cells; host or cells: SW620 lysate; conditions: iQ; for Kd: SW620, read-out: pKdapp (converted); for relative binding vs DMSO: SW620 lysate
Procedure: To identify proteins directly bound by lipoic acid, we employed a chemoproteomic competition assay. Briefly, (R/S)-LA was immobilized on sepharose beads via an amidation reaction to form an affinity matrix (abbreviated as iL; Fig. 1a). This affinity matrix can be incubated with cell lysate to pull down potential LA or LM target proteins and identify these targets via bottom-up proteomics. In a competition assay, free LA or LM were incubated with lysate at different concentrations before pulling down and quantifying target proteins. […] (Fig. 1b, see “Methods” for details). […] The lysate buffer used in this assay contains 1 mM DTT to mimic the intracellular reductive milieu and to reduce lipoic acid and LM. […] Additional competition assays performed in lung adenocarcinoma cell A549 lysate also identified HDAC1, HDAC2, and HDAC6 as targets (Supplementary Fig. 1b). Amongst the three cell lines tested, HDACs were the only confidently identified targets across the 1500–3000 proteins quantified in these assays. […] We validated the results by analogous pulldown competition assays using two other affinity matrices prepared via the immobilization of either the HDAC inhibitor Quisinostat (iQ) and an analog of the class IIa HDAC inhibitor Bürli’s 31[14] (iC)[12]. We have previously shown that these affinity matrices specifically bind to the active sites of HDACs and have used them for HDACi selectivity profiling. Indeed, binding of (R/S)-LA and (R/S)-LM to HDAC1, HDAC2, HDAC3, HDAC6, and, to a lesser extent, HDAC8 was confirmed in these assays (Supplementary Fig. 1c, d). No binding to class IIa HDACs or the recently discovered common HDAC inhibitor off-target MBLAC2 was observed (Supplementary Fig. 1e)[12]. […] This observation might reflect electrostatic repulsion between the HDAC10 active site gate-keeper glutamic acid residues[15],[16] and the terminal carboxylic acid of LA.
To assess the degree of protein depletion from lysates by the affinity matrix, a second pulldown (PDPD) with fresh beads was performed using the unbound protein fraction from the vehicle control flow through. The beads were washed (1 × 1 mL of lysis buffer without inhibitors and only 0.4% Igepal, 2 × 2 mL of lysis buffer without inhibitors and only 0.2% Igepal), and captured proteins were denatured with 8 M urea buffer, alkylated with 55 mM chloroacetamide and digested with Trypsin according to standard procedures. The resulting peptides were desalted on a C18 filter plate (Sep-Pak® tC18 µElution Plate, Waters), vacuum dried, and stored at −20 °C until LC–MSMS measurement.
For the competition assays, relative binding was calculated based on the protein intensity ratio to the DMSO control for every single inhibitor concentration. EC50 values were derived from a four-parameter log-logistic regression with variable slope (constrain: bottom > 0). The obtained EC50 values were multiplied with a protein-dependent correction factor (cf), resulting in the apparent Kd value (Kd^app). The correction factor is determined by calculating the ratio of the protein intensity of two consecutive pulldowns of the vehicle control sample[13]. Targets of the inhibitors were annotated manually according to published procedures[12],[46],[47]. […] Additionally, the number of unique peptides and MSMS counts per condition were taken into account. Positive target binding across several independent experiments performed with different cell lysates further substantiated our confidence for a true positive drug-target binding event.

SMILES	EC50 (HDAC8 [1]) [µM]	Kd (HDAC8 [2]) [µM]	relative binding vs DMSO (HDAC8 [2]; log10 M -3.52288)	relative binding vs DMSO (HDAC8 [2]; log10 M -4)	relative binding vs DMSO (HDAC8 [2]; log10 M -4.52288)	relative binding vs DMSO (HDAC8 [2]; log10 M -5)	relative binding vs DMSO (HDAC8 [2]; log10 M -5.52288)	relative binding vs DMSO (HDAC8 [2]; log10 M -6)	relative binding vs DMSO (HDAC8 [2]; log10 M -6.52288)	relative binding vs DMSO (HDAC8 [2]; log10 M -7)
O=C(O)CCCCC1CCSS1 (racemic) [(R/S)-LA, (R/S)-lipoic acid]	22.3	39.8	0.618	0.6642	1.003	1.048	1.024	1.06	0.9713	1.01
NC(=O)CCCCC1CCSS1 (racemic) [(R/S)-LM, (R/S)-lipoamide]	7.73	15.8	0.4707	0.4645	0.802	1.001	1.106	1.189	0.8797	0.9776
